Source: PMC6749586, “Design, Synthesis, and Anticancer Effect Studies of Iridium(III) Polypyridyl Complexes against SGC-7901 Cells” (Molecules, 2019)
Like-named read-outs stand apart in the source and are kept apart here.

Key:
[1] = system: Eca-109 cells; assay: MTT cytotoxicity assay, Eca-109; type: cell-based, human; conditions: 48 h, read-out: IC50 toward Eca-109
Text: The lung carcinoma cell line A549, the cervical cancer cell line HeLa, the esophageal cancer cell line Eca-109, and the human hepatocellular carcinoma cell line BEL-7402 were purchased from the cell bank of the Cell Institute of Sinica Academia Shanghai (Shanghai, China). The gastric adenocarcinoma cell line SGC-7901, the hepatocellular carcinoma cell line HepG2, and the mouse embryonic fibroblast cell line NIH 3T3 were obtained from the Experimental Animal Center of Sun Yat-Sen University (Guangzhou, China). […] Cell passage experiments were performed with trypsin every 2 days to maintain exponential growth. All cells were cultured until they reached logarithmic growth phase, unless specifically noted. Cell cytotoxicity following treatment with the iridium(III) complexes was detected by MTT assay. The cells were seeded into 96-well micro-assay culture plates (1 × 10^4 cells per well) and grown overnight in a 5% CO2 incubator at 37 °C. Then, the cell lines were treated with gradient concentrations of the complexes 1–3. After treatment for 48 h, MTT solution (5 mg mL^−1, […]) dissolved in phosphate buffer was added to each well and the cells were further cultured for 4 h. […] The absorbance of each well was measured with a microplate reader at a wavelength of 490 nm. The IC50 values were determined from the plots of viability versus concentration used to treat the cells. Three independent experiments were performed to obtain the mean values.

[2] = system: HeLa cells; assay: MTT cytotoxicity assay, HeLa; type: cell-based, human; conditions: 48 h, read-out: IC50 toward HeLa
Text: (§1) The lung carcinoma cell line A549, the cervical cancer cell line HeLa, the esophageal cancer cell line Eca-109, and the human hepatocellular carcinoma cell line BEL-7402 were purchased from the cell bank of the Cell Institute of Sinica Academia Shanghai (Shanghai, China). The gastric adenocarcinoma cell line SGC-7901, the hepatocellular carcinoma cell line HepG2, and the mouse embryonic fibroblast cell line NIH 3T3 were obtained from the Experimental Animal Center of Sun Yat-Sen University (Guangzhou, China). The BEL-7402 and SGC-7901 cell lines were cultured in Roswell Park Memorial Institute Medium (RPMI-1640); and A549, Eca-109, HepG2, and NIH 3T3 cells were grown in Dulbecco’s Modified Eagle’s Medium (DMEM), including 10% fetal bovine serum (FBS), 100 units mL^−1 penicillin/streptomycin mixture, and 2.0 g/L of NaHCO3. Cell passage experiments were performed with trypsin every 2 days to maintain exponential growth. All cells were cultured until they reached logarithmic growth phase, unless specifically noted.
(§2) Cell cytotoxicity following treatment with the iridium(III) complexes was detected by MTT assay. The cells were seeded into 96-well micro-assay culture plates (1 × 10^4 cells per well) and grown overnight in a 5% CO2 incubator at 37 °C. Then, the cell lines were treated with gradient concentrations of the complexes 1–3. After treatment for 48 h, MTT solution (5 mg mL^−1, […]) dissolved in phosphate buffer was added to each well and the cells were further cultured for 4 h. Upon completion of incubation, the solvent was removed and 100 µL/well of buffer containing dimethylformamide (50%) and sodium dodecyl sulfate (20%) was added to dissolve the produced formazan. The absorbance of each well was measured with a microplate reader at a wavelength of 490 nm. The IC50 values were determined from the plots of viability versus concentration used to treat the cells. Three independent experiments were performed to obtain the mean values.

[3] = system: A549 cells; assay: MTT cytotoxicity assay, A549; type: cell-based, human; conditions: read-out: IC50 toward A549
Text: as §1, §2

[4] = system: SGC-7901 cells; assay: MTT cytotoxicity assay, SGC-7901; type: cell-based, human; conditions: read-out: IC50 toward SGC-7901
Text: as §1, §2

[5] = system: HepG2 cells; assay: MTT cytotoxicity assay, HepG2; type: cell-based, human; conditions: read-out: IC50 toward HepG2
Text: as §1, §2

[6] = system: BEL-7402 cells; assay: MTT cytotoxicity assay, BEL-7402; type: cell-based, human; conditions: read-out: IC50 toward BEL-7402
Text: as §1, §2

[7] = system: NIH 3T3 cells; assay: MTT cytotoxicity assay, normal NIH 3T3; type: cell-based, mouse; conditions: Mus musculus, NIH3T3, 48 h, read-out: IC50 toward NIH 3T3
Text: as §1, §2

[8] = system: SGC-7901 cells; assay: Mitochondrial membrane potential assay with JC-1; type: cell-based, human; conditions: substance alone: 4.0 µM 1, 15.0 µM 2, 15.0 µM 3, CCCP or NAC; 24 h; control 12.03
Protocol: The SGC-7901 cells were seeded into a 12-well plate at a density of 1.5 × 10^5 cells per well and incubated to attach at 37 °C in 5% CO2. Overnight, the cells were treated with complexes 1–3 for 24 h. CCCP was used as a positive control. Then, the cells were incubated with JC-1 for 30 min at room temperature, after which the remaining dye was washed away with PBS. The samples were then observed under the ImageXpress Micro XLS system and flow cytometry was employed to quantify the fluorescence intensity.

Row | SMILES | IC50 [1] [µM] | IC50 [2] [µM] | IC50 ([3]; 48 h) [µM] | IC50 ([4]; 48 h) [µM] | IC50 ([5]; 48 h) [µM] | IC50 ([6]; 48 h) [µM] | IC50 ([2]; Homo sapiens, HeLa) [µM] | IC50 ([3]; Homo sapiens, A549, 48 h) [µM] | IC50 [7] [µM] | IC50 ([4]; Homo sapiens, SGC-7901, 48 h) [µM] | IC50 ([5]; Homo sapiens, HepG2, 48 h) [µM] | IC50 ([6]; Homo sapiens, Bel-7402, 48 h) [µM] | Ratio of red/green JC-1 fluorescence intensity (R) [8]
1 | N.N.[Cl][Pt][Cl] [Cisplatin, reference compound] | 11.2 ± 0.6 | 7 ± 1 | 7.5 ± 1.3 | 3.6 ± 0.5 | 12.5 ± 1.5 | 10.8 ± 1.6 | – | – | – | – | – | – | –
2 | Nc1c(N)c2cccnc2c2ncccc12 [DAP, 5,6-diamino-phenanthroline] | – | – | – | – | – | – | 9.2 ± 1 | 5 ± 0.3 | 12.3 ± 0.8 | 15.8 ± 2.8 | 4.6 ± 0.8 | 37.4 ± 3.2 | –
3 | CC(=O)N[C@@H](CS)C(=O)O [NAC, N-acetylcysteine, reference compound] | – | – | – | – | – | – | – | – | – | – | – | – | 19.40
4 | Nc1c([N+](=O)[O-])c2cccnc2c2ncccc12 [NAP, 5-nitro-6-amino-phenanthroline] | – | – | – | – | – | – | 45.8 ± 4 | 42.7 ± 2.1 | 61.9 ± 1.9 | 90.9 ± 7.4 | 56 ± 1.9 | 21.1 ± 0.8 | –
5 | O=[N+]([O-])c1cc2cccnc2c2ncccc12 [NP, 5-nitrophenanthroline] | – | – | – | – | – | – | 18.1 ± 1.7 | 11.1 ± 0.7 | > 200 | 18.4 ± 0.1 | 16.7 ± 0.5 | 23.5 ± 1.1 | –
